# Measurements: patent US11999697B2, “Methods and compositions for inhibition of dihydroorotate dehydrogenase” (OHIO STATE INNOVATION FOUNDATION, priority 2018, dated 2024)
# Where two headings read alike, the source gives them in different places.
# Columns and labels:
# [1] = test system: luciferase-expressing MOLM-13 cells; assay: MOLM13 xenograft study, daily dosage regimen; type: in vivo, NCG mice
# Method: The effect of a representative disclosed compound, Cpd3, on in vivo tumor growth was assessed in a MOLM13 xenograft study was examined using a daily dosage regimen. Briefly, male NCG (NOD-Prkdc^em26Cd52//2rg^em26Cd22/NjuCrl) mice (N=12 per group) were given an intravenous injection of 1×10^4 luciferase-expressing MOLM-13 cells. As discussed above, this model is believed to be a very aggressive model of tumor growth (vehicle treated mice typically reach early removal criteria by 24-26 days post-engraftment). Briefly, NCG mice were injected with 1×10^4 MOLM13-luciferase cells (N=12 per group) and at 4 days post-engraftment (Day 0) were imaged and enrolled into one of three treatment groups: Vehicle, 25 mg/kg Cpd3 (administered daily) or 50 mg/kg Cpd3 (administered daily). […] The color scale represents the radiance (p/s/cm2/sr), related to the amount of luciferase expression and therefore disease burden. […] Survival data were calculated using Kapler Meyer analysis (vehicle vs. 25 mg/kg dosing with Cpd3 or vehicle vs. 50 mg/kg dosing with Cpd3; each p<0.001). Arrow indicates the start of treatment.
# primary human AML cells = assay: MTS assay in primary AML cells on HS5 stromal cells; type: cell-based; conditions: 96 hours
# Method: (§1) Triplicate wells were set up for each condition.
# Cpd3 efficacy was assessed in primary AML samples. Due to the poor in vitro viability of primary cells, these assays were performed in the presence of a support layer of human bone marrow stromal cells (HS5). Cells were treated with Cpd3 or BQR for 96 hours, followed by viability using an MTS assay. FIGS. 2A-2B show representative data for proliferation of primary human AML cells in the presence of a representative disclosed compound, Cpd3, compared to a reference compound, brequinar (BQR), using a MTS cell proliferation assay as described herein below. Briefly, primary AML cells were cultured in the presence human bone marrow stromal cells, and were treated with vehicle (DMSO), or varying doses of Cpd3 or brequinar sodium (BQR) for 96 hours. Cell growth was determined at 96 hours relative to the vehicle (DMSO) control using an MTS assay (N=6 primary AML samples). […] The IC50 values determined were variable, with an […] of about 0.2 μM in some samples. However, in other primary cell samples an IC50 could not be determined (FIG. 2A).
# [2] = test system: murine AML cells (Tet2-KO/Flt3-ITD, IDH2-R140Q/Flt3-ITD); assay: MTS assay on murine AML bone marrow cells ex vivo; type: cell-based, mice; conditions: 0-10 μM, 96 hours
# Source text: as §1
# In particular, the in vivo effects of Cpd3 on the immune repertoire is important in view of previous reports describing DHODH inhibitors as having diverse effects on innate and cellular immune function. FIGS. 9A-9B show representative data for proliferation of murine AML cells in the presence of a representative disclosed compound, Cpd3, compared to a reference compound, brequinar (indicated as “BQR” in the figure). […] Briefly, bone marrow cells were isolated from leukemic Tet2-KO/Flt3-ITD mice (FIG. 9A; N=7) or leukemic IDH2-R140Q/Flt3-ITD mice (FIG. 9B; N=3) were treated ex vivo with Cpd3 or BQR (dose range 0-10 μM). Cell growth was determined at 96 hours relative to the vehicle (DMSO) control using a MTS cell proliferation assay as described herein below.
# [3] = Pharmacokinetic study, oral dosing at different dose levels; type: in vivo, wild type B6 mice; conditions: for AUC(0-t) / Cmax / Tmax / half-life: B6, mouse, plasma, oral gavage; for AUC(0-t): po
# Source text: LC-MS/MS Assay Materials: Acetonitrile and methanol were LC-MS grade (Fisher Scientific (Fair Lawn, N.J., USA). Other chemicals were as follows: formic Acid (98%, v/v in water; Fisher Scientific, Fair Lawn, N.J., USA); ammonium acetate (Sigma Aldrich Inc.); water: DDH2O obtained from a Millipore water system; and brequinar was obtained from Sigma. (>99% purity). Solvent A: 0.1% formic acid in water. Solvent B: 0.1% Formic Acid in methanol and acetonitrile. Internal Standard (“IS”) precipitation solution was 150 ng/ml internal standards in acetonitrile: water (3:1, v/v).
# Sample preparation: To 10 μL plasma sample was added 100 μL of working IS solution and 20 μL MeOH. Samples were then vortexed for 30 seconds, followed by centrifugation (Eppendorf 5415 R centrifuge) at 10,000 rpm for 8 minutes at 4° C. Supernatant of each sample was transferred into an autosampler vial and sealed with rubber/Teflon crimp cap. Sample volume that was injected onto HPLC was 5 μL. The calibrations samples were prepared at a test compound concentration of 1000, 500, 250, 100, 50, 10, 5 ng/mL in mouse plasma. The quality control samples were as follows: QC1=750 ng/mL, OC2=75 ng/mL, QC3=25 ng/mL, LLOQ=5 ng/mL.
# HPLC Parameters: Accucore Vanquish C18 column (100×2.1 mm, dp=1.5 μm) used in a Vanquish UHPLC system, using a XBridge® BEH C18, 5-μm guard column. Mobile phase: gradient as provided below in Table 8 below. Column temperature: 40° C.±5° C.; Autosampler temperature: 10° C.±5° C. Flow rate: 0.4 ml/min. run time: 5.0 min.
# The mass spectrometer used was a TSQ Quantiva (Thermo Fisher Scientific).
# FIGS. 14A-14C show representative pharmacokinetic data obtained following administration of a representative disclosed compound, Cpd3, via oral dosing at different dose levels carried out using the methods described herein below in Examples. Briefly, wild type B6 mice were administered a single dose of Cpd3 by oral gavage at increasing concentrations (10, 25, 50 and 75 mg/kg). Blood plasma was sampled at 15, 30 and 60 minutes, and 2, 6 and 24 hours.
structure (smiles),measurement,setting,value
"CCOc1ccc(-c2ccc(-c3cc(C(=O)O)c4cc(F)ccc4n3)cc2)cc1 [Cpd3, 2-(4′-ethoxy-[1,1′-biphenyl]-4-yl)-6-fluoroquinoline-4-carboxylic acid]",Median survival time,[1]; 25 mg/kg QD PO,24 days
same,Median survival time,[1]; 50 mg/kg QD PO,27 days
same,tumor burden (luciferase expression by IVIS imaging),[1]; 25 or 50 mg/kg administered daily,able to reduce the tumor burden in the mice
same,IC60 in primary AML samples,"primary human AML cells; HS5 stromal support, some samples",about 0.2 μM
same,growth of primary AML cells,primary human AML cells; N=6 primary AML samples,decreases growth of primary AML cells comparable to the reference compound
same,potency on murine leukemic cells ex vivo relative to BQR,[2],a log fold more potent than BQR
same,AUC(0-t),"[3]; 10 mg/kg, 10 mg/kg, read-out: AUC0-6",47 ± 0.92 µg·h/mL
same,AUC(0-t),"[3]; 10 mg/kg, 10 mg/kg, read-out: AUC0-24",66.7 ± 6.17 µg·h/mL
same,AUC(0-t),"[3]; 25 mg/kg, 25 mg/kg, read-out: AUC0-6",101 ± 38 µg·h/mL
same,AUC(0-t),"[3]; 25 mg/kg, 25 mg/kg, read-out: AUC0-24",171 ± 34.2 µg·h/mL
same,AUC(0-t),"[3]; 50 mg/kg, 50 mg/kg, read-out: AUC0-6",333 ± 47.1 µg·h/mL
same,AUC(0-t),"[3]; 50 mg/kg, 50 mg/kg, read-out: AUC0-24",480 ± 62.1 µg·h/mL
same,AUC(0-t),"[3]; 75 mg/kg, 75 mg/kg, read-out: AUC0-6",531 ± 103 µg·h/mL
same,AUC(0-t),"[3]; 75 mg/kg, 75 mg/kg, read-out: AUC0-24",786 ± 39.3 µg·h/mL
same,Cmax,[3]; 10 mg/kg,18.6 ± 0.93 µg/mL
same,Tmax,[3]; 10 mg/kg,0.83 ± 0.29 h
same,half-life,[3]; 10 mg/kg,3.4 ± 0.3 h
same,Cmax,[3]; 25 mg/kg,35.9 ± 12.5 µg/mL
same,Tmax,[3]; 25 mg/kg,0.67 ± 0.29 h
same,half-life,[3]; 25 mg/kg,6.05 ± 1.97 h
same,Cmax,[3]; 50 mg/kg,93.2 ± 18 µg/mL
same,Tmax,[3]; 50 mg/kg,0.67 ± 0.29 h
same,half-life,[3]; 50 mg/kg,3.23 ± 0.77 h
same,Cmax,[3]; 75 mg/kg,115 ± 8.99 µg/mL
same,Tmax,[3]; 75 mg/kg,0.75 ± 0.35 h
same,half-life,[3]; 75 mg/kg,2.76 ± 0.3 h
same,relationship between dose and exposure,"[3]; oral gavage, 10, 25, 50 and 75 mg/kg",linear relationship between dose and exposure
